Data reported in publication PMC4409056, “A Maltose-Binding Protein Fusion Construct Yields a Robust Crystallography Platform for MCL1” (PLoS ONE, 2015).

Columns and labels:
MCL1 173–329 = molecular target: T1, MCL1 173–329 (Homo sapiens, UniProt Q07820); test: isothermal titration calorimetry; format: binding
T1 construct: residues 173-329 (no N-terminal region, no transmembrane domain), E. coli, 6xHis-Smt3 tag cleaved by Ulp-1, wild type

MBP-MCL1 = molecular target: T2, MBP-MCL1 (Homo sapiens, UniProt Q07820, K194A/K197A/R201A); test: isothermal titration calorimetry; crystal structure […] Å (soak); format: binding
T2 construct: 6xHis-TEV tag cleaved, MBP kept; E. coli
T2 sequence (Q07820 173-321 K194A/K197A/R201A): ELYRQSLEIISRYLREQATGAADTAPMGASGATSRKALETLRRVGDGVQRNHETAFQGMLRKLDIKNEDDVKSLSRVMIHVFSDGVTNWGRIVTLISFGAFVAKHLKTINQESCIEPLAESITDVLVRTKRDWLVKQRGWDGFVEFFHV

MCL1 173–329 (human) = test: ITC; hNoxa (20–38) (400 μM or 300 μM) titrated into 25 μM MCL1 173–329 or MBP-MCL1; autoITC200, 25°C, 25 mM Hepes pH 7.4, 100 mM NaCl, 0.1 mM TCEP, 4% DMSO; n ≥ 3, averaged KD
MCL1 173–329 (human), sequence (Q07820 173-329): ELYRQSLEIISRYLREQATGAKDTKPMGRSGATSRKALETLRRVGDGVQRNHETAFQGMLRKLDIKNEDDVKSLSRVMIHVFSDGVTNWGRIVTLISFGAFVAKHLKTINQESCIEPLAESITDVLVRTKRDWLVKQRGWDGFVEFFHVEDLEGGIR

[1] = molecular target: T3, MBP-MCL1 (MBP, two-residue GS linker, MCL1 173–321 K194A/K197A/R201A) (human, UniProt Q07820 173-321, K194A | K197A | R201A); test: as above; conditions: both partners purified
T3 construct: two-residue linker between MBP and MCL1; MCL1, human, residues 173-321 with three alanine mutations in the disordered loop; only the 6XHis-Tev part was removed with TEV protease; Six of the seven deposited PDB entries hold this construct and one holds MCL1 173–321 without MBP; also called MBP-MCL1 fusion construct; MBP-MCL1 fusion protein; source: E. coli (Top 10 or BL21 (DE3)), purified (Ni2+ …)
T3 sequence (Q07820 other isoform, or with tags, fused parts or gaps with the stated changes): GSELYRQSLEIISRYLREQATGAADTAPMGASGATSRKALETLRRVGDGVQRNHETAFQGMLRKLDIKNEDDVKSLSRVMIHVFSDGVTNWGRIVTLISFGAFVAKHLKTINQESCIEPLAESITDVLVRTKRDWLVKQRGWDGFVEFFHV

T1 sequence (Q07820 173-329): as the sequence (Q07820 173-329) above

Kd (MCL1 173–329) [µM]	Kd (MBP-MCL1) [µM]	Kd (MCL1 173–329 (human)) [µM]	Kd [1] [µM]	Molecule
97	93	–	–	O=C(O)c1sc2cc(F)ccc2c1Cl [compound 4, fragment 4]
–	–	0.16	0.19	ELEVECATQLRRFGDKLNF (peptide, UniProt Q13794 20-38, looked up, Noxa, human, BH3 peptide, residues 20-38; also called BH3 peptide Noxa (20–38)) [hNoxa (20–38)]
